Where two headings read alike, the source gives them in different places.
Assays:
[1] = molecular target: T1, ATPase (Bos taurus, UniProt P13621); experiment: ATPase inhibition assay; format: biochemical
T1 construct: from tissue; host or cells: bovine sub-mitochondrial particles (SMPs)
Method: (§1) Representative compounds were tested for cytotoxicity in Ramos cells and inhibitory activity against ATPase. The Ramos cell death assay and ATPase inhibition assay were conducted as described in K. M. Johnson et al. Chemistry & Biology 2005, 12, 485-496.

[2] = test system: Ramos cells; experiment: Ramos cell death assay (cytotoxicity); format: cell-based; details: Homo sapiens
Method: as §1

`CCn1c(=O)[nH]c2ccc(C3=NC(Cc4ccc5ccccc5c4)C(=O)N(C)c4ccc(Cl)cc43)cc21` (stereo not drawn) [Compound I-1, 7-Chloro-5-(3-ethyl-2-oxo-2,3-dihydro-1H-benzo[d]imidazol-5-yl)-1-methyl-3-(naphthalen-2-ylmethyl)-1H-benzo[e][1,4]diazepin-2(3H)-one] was tested, and the IC50 ([1]; read-out: ATPase IC50) was under 7 µM and the EC50 [2] was over 7 µM.
`Cn1c(=O)[nH]c2ccc(C3=NC(Cc4ccccc4Cl)C(=O)Nc4ccc(Cl)cc43)cc21` (stereo not drawn) [Compound I-2, 7-Chloro-3-(2-chlorobenzyl)-5-(3-methyl-2-oxo-2,3-dihydro-1H-benzo[d]imidazol-5-yl)-1H-benzo[e][1,4]diazepin-2(3H)-one] gave an IC50 [1] of under 7 µM and an EC50 [2] of under 7 µM.
`O=C(O)Cn1c(=O)[nH]c2ccc(C3=NC(Cc4ccccc4Cl)C(=O)Nc4ccc(Cl)cc43)cc21` (stereo not drawn) [Compound I-3, 2-(6-(7-Chloro-3-(2-chlorobenzyl)-2-oxo-2,3-dihydro-1H-benzo[e][1,4]diazepin-5-yl)-2-oxo-2,3-dihydro-1H-benzo[d]imidazol-1-yl)acetic acid] was tested, and the IC50 ([1]; read-out: ATPase IC50) was over 7 µM and the EC50 [2] was over 7 µM.
With `CNC(=O)Cn1c(=O)[nH]c2ccc(C3=NC(Cc4ccccc4Cl)C(=O)Nc4ccc(Cl)cc43)cc21` (stereo not drawn) [Compound I-4, 2-(6-(7-Chloro-3-(2-chlorobenzyl)-2-oxo-2,3-dihydro-1H-benzo[e][1,4]diazepin-5-yl)-2-oxo-2,3-dihydro-1H-benzo[d]imidazol-1-yl)-N-methylacetamide] the IC50 ([1]; read-out: ATPase IC50) was over 7 µM and the EC50 [2] was over 7 µM.
Compound `O=C1Nc2ccc(Cl)cc2C(c2ccc3[nH]c(=O)n(CCCO)c3c2)=NC1Cc1ccccc1Cl` (stereo not drawn) [Compound I-5, 7-Chloro-3-(2-chlorobenzyl)-5-(3-(3-hydroxypropyl)-2-oxo-2,3-dihydro-1H-benzo[d]imidazol-5-yl)-1H-benzo[e][1,4]diazepin-2(3H)-one] has an IC50 ([1]; read-out: ATPase IC50) of under 7 µM and an EC50 [2] of under 7 µM.
Work on `O=C1Nc2ccc(Cl)cc2C(c2ccc3[nH]c(=O)n(CCO)c3c2)=NC1Cc1ccccc1Cl` (stereo not drawn) [Compound I-6, 7-Chloro-3-(2-chlorobenzyl)-5-(3-(2-hydroxyethyl)-2-oxo-2,3-dihydro-1H-benzo[d]imidazol-5-yl)-1H-benzo[e][1,4]diazepin-2(3H)-one] yielded an IC50 ([1]; read-out: ATPase IC50) of over 7 µM and an EC50 [2] of under 7 µM.
Compound `CN1C(=O)C(Cc2ccccc2Cl)N=C(c2ccc3[nH]c(=O)n(CCCO)c3c2)c2cc(Cl)ccc21` (stereo not drawn) [Compound I-7, 7-Chloro-3-(2-chlorobenzyl)-5-(3-(3-hydroxypropyl)-2-oxo-2,3-dihydro-1H-benzo[d]imidazol-5-yl)-1-methyl-1H-benzo[e][1,4]diazepin-2(3H)-one] has an IC50 ([1]; read-out: ATPase IC50) of under 7 µM and an EC50 [2] of over 7 µM.
`Cn1c(=O)[nH]c2ccc(C3=NC(Cc4ccccc4Cl)C(=O)N(CCO)c4ccc(Cl)cc43)cc21` (stereo not drawn) [Compound I-8, 7-Chloro-3-(2-chlorobenzyl)-1-(2-hydroxyethyl)-5-(3-methyl-2-oxo-2,3-dihydro-1H-benzo[d]imidazol-5-yl)-1H-benzo[e][1,4]diazepin-2(3H)-one] gave an IC50 ([1]; read-out: ATPase IC50) of under 7 µM and an EC50 [2] of over 7 µM.
In the case of `COc1cc(Cl)cc2c1NC(=O)C(Cc1ccccc1Cl)N=C2c1ccc2[nH]c(=O)n(C)c2c1` (stereo not drawn) [Compound I-9, 7-Chloro-3-(2-chlorobenzyl)-9-methoxy-5-(3-methyl-2-oxo-2,3-dihydro-1H-benzo[d]imidazol-5-yl)-1H-benzo[e][1,4]diazepin-2(3H)-one], the IC50 ([1]; read-out: ATPase IC50) is reported as under 7 µM and the EC50 [2] is reported as under 7 µM.
In the case of `Cn1c(=O)[nH]c2ccc(C3=NC(Cc4ccccc4Cl)C(=O)Nc4c(O)cc(Cl)cc43)cc21` (stereo not drawn) [Compound I-10, 7-Chloro-3-(2-chlorobenzyl)-9-hydroxy-5-(3-methyl-2-oxo-2,3-dihydro-1H-benzo[d]imidazol-5-yl)-1H-benzo[e][1,4]diazepin-2(3H)-one], the IC50 ([1]; read-out: ATPase IC50) is reported as under 7 µM and the EC50 [2] is reported as over 7 µM.
`CN1C(=O)C(Cc2ccccc2Cl)N=C(c2ccc3[nH]c(=O)n(C)c3c2)c2cc(Cl)ccc21` (stereo not drawn) [Compound I-11, 7-Chloro-3-(2-chlorobenzyl)-1-methyl-5-(3-methyl-2-oxo-2,3-dihydro-1H-benzo[d]imidazol-5-yl)-1H-benzo[e][1,4]diazepin-2(3H)-one] gave an IC50 ([1]; read-out: ATPase IC50) of under 7 µM and an EC50 [2] of over 7 µM.
`Cn1c(=O)[nH]c2ccc(C3=NC(Cc4ccccc4Cl)C(=O)Nc4c(F)cc(Cl)cc43)cc21` (stereo not drawn) [Compound I-12, 7-Chloro-3-(2-chlorobenzyl)-9-fluoro-5-(3-methyl-2-oxo-2,3-dihydro-1H-benzo[d]imidazol-5-yl)-1H-benzo[e][1,4]diazepin-2(3H)-one] showed an IC50 ([1]; read-out: ATPase IC50) of under 7 µM and an EC50 [2] of over 7 µM.
For `Cn1c(=O)[nH]c2ccc(C3=NC(Cc4ccc(Cl)cc4)C(=O)Nc4ccc(Cl)cc43)cc21` (stereo not drawn) [Compound I-13, 7-Chloro-3-(4-chlorobenzyl)-5-(3-methyl-2-oxo-2,3-dihydro-1H-benzo[d]imidazol-5-yl)-1H-benzo[e][1,4]diazepin-2(3H)-one], the IC50 [1] was under 7 µM and the EC50 [2] was under 7 µM.
Compound `CCn1c(=O)[nH]c2cc(C3=NC(Cc4ccc5ccccc5c4)C(=O)Nc4ccc(Cl)cc43)ccc21` (stereo not drawn) [Compound I-14] has an IC50 ([1]; read-out: ATPase IC50) of under 7 µM and an EC50 [2] of under 7 µM.
`O=C1Nc2ccc(F)cc2C(c2ccc3[nH]c(=O)[nH]c3c2)=NC1Cc1ccccc1Cl` (stereo not drawn) [II-1, 3-(2-Chlorobenzyl)-7-fluoro-5-(2-oxo-2,3-dihydro-1H-benzo[d]imidazol-5-yl)-1H-benzo[e][1,4]diazepin-2(3H)-one] showed an IC50 [1] of over 7 µM and an EC50 [2] of under 7 µM.
In the case of `CCc1ccc(CC2N=C(c3ccc(O)c(CC(N)=O)c3)c3cc(Cl)ccc3NC2=O)cc1CC` (stereo not drawn) [III-1, 2-(5-(7-Chloro-3-(3,4-diethylbenzyl)-2-oxo-2,3-dihydro-1H-benzo[e][1,4]diazepin-5-yl)-2-hydroxyphenyl)acetamide], the IC50 ([1]; read-out: ATPase IC50) is reported as over 7 µM and the EC50 [2] is reported as under 7 µM.
`Cc1cc(C2=NC(Cc3cc(F)ccc3Cl)C(=O)Nc3ccc(Cl)cc32)ccc1O` (stereo not drawn) [III-2, 7-Chloro-3-(2-chloro-5-fluorobenzyl)-5-(4-hydroxy-3-methylphenyl)-1H-benzo[e][1,4]diazepin-2(3H)-one] gave an IC50 [1] of under 7 µM and an EC50 [2] of under 7 µM.
For `Cc1cc(C2=NC(Cc3ccc(Cl)cc3)C(=O)Nc3ccc(Cl)cc32)ccc1O` (stereo not drawn) [III-3, 7-Chloro-3-(4-chlorobenzyl)-5-(4-hydroxy-3-methylphenyl)-1H-benzo[e][1,4]diazepin-2(3H)-one], the IC50 [1] was under 7 µM and the EC50 [2] was under 7 µM.
With `Cc1cc(C2=NC(Cc3ccc(F)cc3Cl)C(=O)Nc3ccc(Cl)cc32)ccc1O` (stereo not drawn) [III-4, 7-Chloro-3-(2-chloro-4-fluorobenzyl)-5-(4-hydroxy-3-methylphenyl)-1H-benzo[e][1,4]diazepin-2(3H)-one] the IC50 [1] was under 7 µM and the EC50 [2] was under 7 µM.
In the case of `Cc1cc(C2=NC(Cc3ccccc3C(F)(F)F)C(=O)Nc3ccc(Cl)cc32)ccc1O` (stereo not drawn) [III-5, 7-Chloro-5-(4-hydroxy-3-methylphenyl)-3-(2-(trifluoromethyl)benzyl)-1H-benzo[e][1,4]diazepin-2(3H)-one], the IC50 [1] is reported as under 7 µM and the EC50 [2] is reported as under 7 µM.
For `Cc1cc(C2=NC(Cc3ccc(C(F)(F)F)cc3)C(=O)Nc3ccc(Cl)cc32)ccc1O` (stereo not drawn) [III-6, 7-Chloro-5-(4-hydroxy-3-methylphenyl)-3-(4-(trifluoromethyl)benzyl)-1H-benzo[e][1,4]diazepin-2(3H)-one], the IC50 [1] was over 7 µM and the EC50 [2] was over 7 µM.
With `Cn1c(=O)[nH]c2ccc(C3=N[C@H](Cc4ccccc4Cl)C(=O)Nc4ccc(Cl)cc43)cc21` [IV-1, (R)-7-Chloro-3-(2-chlorobenzyl)-5-(3-methyl-2-oxo-2,3-dihydro-1H-benzo[d]imidazol-5-yl)-1H-benzo[e][1,4]diazepin-2(3H)-one] the IC50 [1] was under 7 µM and the EC50 [2] was under 7 µM.
`Cn1c(=O)[nH]c2ccc(C3=N[C@@H](Cc4ccccc4Cl)C(=O)Nc4ccc(Cl)cc43)cc21` [IV-2, (S)-7-chloro-3-(2-chlorobenzyl)-5-(3-methyl-2-oxo-2,3-dihydro-1H-benzo[d]imidazol-5-yl)-1H-benzo[e][1,4]diazepin-2(3H)-one] gave an IC50 [1] of under 7 µM and an EC50 [2] of under 7 µM.
In the case of `O=C1Nc2ccc(Cl)cc2C(c2ccc3[nH]c(=O)n(CCCO)c3c2)=N[C@@H]1Cc1ccccc1Cl` [IV-3, (R)-7-chloro-3-(2-chlorobenzyl)-5-(3-(3-hydroxypropyl)-2-oxo-2,3-dihydro-1H-benzo[d]imidazol-5-yl)-1H-benzo[e][1,4]diazepin-2(3H)-one], the IC50 ([1]; read-out: ATPase IC50) is reported as under 7 µM and the EC50 [2] is reported as under 7 µM.
In the case of `O=C1Nc2ccc(Cl)cc2C(c2ccc3[nH]c(=O)n(CCCO)c3c2)=N[C@H]1Cc1ccccc1Cl` [IV-4, (S)-7-Chloro-3-(2-chlorobenzyl)-5-(3-(3-hydroxypropyl)-2-oxo-2,3-dihydro-1H-benzo[d]imidazol-5-yl)-1H-benzo[e][1,4]diazepin-2(3H)-one], the IC50 ([1]; read-out: ATPase IC50) is reported as under 7 µM and the EC50 [2] is reported as under 7 µM.
With `Cc1cc(C2=N[C@@H](Cc3ccccc3Cl)C(=O)Nc3ccc(Cl)cc32)ccc1O` [IV-5, (S)-7-Chloro-3-(2-chlorobenzyl)-5-(4-hydroxy-3-methylphenyl)-1H-benzo[e][1,4]diazepin-2(3H)-one] the IC50 [1] was under 7 µM and the EC50 [2] was under 7 µM.
`Cc1cc(C2=N[C@H](Cc3ccccc3Cl)C(=O)Nc3ccc(Cl)cc32)ccc1O` [IV-6, (R)-7-Chloro-3-(2-chlorobenzyl)-5-(4-hydroxy-3-methylphenyl)-1H-benzo[e][1,4]diazepin-2(3H)-one] gave an IC50 [1] of under 7 µM and an EC50 [2] of under 7 µM.
